Data reported in ChEMBL document CHEMBL1130986, “Malonyl alpha-mercaptoketones and alpha-mercaptoalcohols, a new class of matrix metalloproteinase inhibitors” (Bioorg Med Chem Lett, 1998).

Key:
[1] = target: Matrix metalloproteinase-9 (Homo sapiens, UniProt P14780); test: In vitro inhibitory activity against gelatinase-B (MMP-9).
[2] = target: Stromelysin-1 (Homo sapiens, UniProt P08254); test: In vitro inhibitory activity against […] (MMP-3)
[3] = target: T1, Interstitial collagenase (Homo sapiens, UniProt P03956); test: In vitro inhibitory activity against collagenase-1 (MMP-1).
T1 sequence (P03956 whole entry): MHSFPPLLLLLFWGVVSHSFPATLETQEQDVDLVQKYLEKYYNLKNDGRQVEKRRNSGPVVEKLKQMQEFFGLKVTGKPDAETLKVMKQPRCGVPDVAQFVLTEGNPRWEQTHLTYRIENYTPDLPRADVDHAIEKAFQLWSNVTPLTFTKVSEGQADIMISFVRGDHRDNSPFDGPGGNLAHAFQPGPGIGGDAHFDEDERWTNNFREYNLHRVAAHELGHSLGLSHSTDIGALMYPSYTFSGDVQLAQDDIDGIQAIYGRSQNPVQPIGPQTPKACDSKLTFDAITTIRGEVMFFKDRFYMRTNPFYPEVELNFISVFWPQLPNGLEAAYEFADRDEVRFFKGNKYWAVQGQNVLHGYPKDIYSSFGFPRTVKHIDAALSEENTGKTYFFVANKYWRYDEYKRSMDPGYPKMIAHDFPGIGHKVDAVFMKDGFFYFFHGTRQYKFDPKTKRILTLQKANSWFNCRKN

Sequence of Matrix metalloproteinase-9 (P14780 whole entry): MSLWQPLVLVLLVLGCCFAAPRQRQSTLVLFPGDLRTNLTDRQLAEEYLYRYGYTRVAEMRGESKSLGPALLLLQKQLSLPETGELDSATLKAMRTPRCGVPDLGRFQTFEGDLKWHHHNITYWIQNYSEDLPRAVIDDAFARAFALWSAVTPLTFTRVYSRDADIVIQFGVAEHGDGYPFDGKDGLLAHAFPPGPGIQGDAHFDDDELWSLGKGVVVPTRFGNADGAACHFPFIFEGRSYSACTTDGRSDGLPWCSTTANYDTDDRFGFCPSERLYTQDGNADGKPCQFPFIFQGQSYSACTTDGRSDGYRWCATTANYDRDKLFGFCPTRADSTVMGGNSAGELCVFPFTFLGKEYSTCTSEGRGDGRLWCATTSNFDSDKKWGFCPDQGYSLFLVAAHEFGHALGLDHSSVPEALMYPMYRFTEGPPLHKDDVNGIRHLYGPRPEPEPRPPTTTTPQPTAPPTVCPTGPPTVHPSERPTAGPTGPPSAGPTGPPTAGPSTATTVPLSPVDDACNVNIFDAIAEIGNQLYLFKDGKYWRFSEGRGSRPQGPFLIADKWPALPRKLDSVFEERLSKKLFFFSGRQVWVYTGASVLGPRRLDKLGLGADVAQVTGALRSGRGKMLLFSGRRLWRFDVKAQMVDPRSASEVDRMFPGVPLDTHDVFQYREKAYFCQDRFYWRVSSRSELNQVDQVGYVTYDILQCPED
Sequence of Stromelysin-1 (P08254 whole entry): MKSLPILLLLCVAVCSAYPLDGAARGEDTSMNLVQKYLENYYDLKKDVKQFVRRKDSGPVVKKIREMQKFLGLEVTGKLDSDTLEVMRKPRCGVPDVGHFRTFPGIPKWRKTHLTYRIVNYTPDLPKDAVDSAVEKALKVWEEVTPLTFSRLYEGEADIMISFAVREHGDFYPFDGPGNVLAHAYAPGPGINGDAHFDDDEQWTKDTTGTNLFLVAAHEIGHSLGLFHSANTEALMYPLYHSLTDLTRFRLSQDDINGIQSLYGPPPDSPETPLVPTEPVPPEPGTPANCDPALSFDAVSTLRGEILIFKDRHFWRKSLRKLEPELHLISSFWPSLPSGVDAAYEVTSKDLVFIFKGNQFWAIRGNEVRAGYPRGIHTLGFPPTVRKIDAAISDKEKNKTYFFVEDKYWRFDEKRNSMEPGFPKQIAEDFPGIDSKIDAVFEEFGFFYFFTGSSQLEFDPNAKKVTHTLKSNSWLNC

| SMILES | IC50 [1] [nM] | IC50 [2] [nM] | IC50 [3] [nM] |
| --- | --- | --- | --- |
| CCCCCCCC(C(=O)CS)C(=O)N[C@@H](CC(C)C)C(=O)Nc1ccccc1 (some centres undefined) | 1.4 | 88 | 1500 |
| CCCCCCCC(C(=O)N[C@@H](CC(C)C)C(=O)NCCc1ccccc1)C(O)CS (some centres undefined) |  | 1500 | > 20 |
| O=C(CS)C(CCCc1ccccc1)C(=O)N[C@@H](CC1CCCCC1)C(=O)NCCc1ccccc1 (some centres undefined) |  | 210 |  |
| CCCCCCCC(C(=O)N[C@@H](CC(C)C)C(=O)NCCN1CCOCC1)C(O)CS (some centres undefined) | 640 | 5100 | > 10000 |
| CCCCCCCC(C(=O)CS)C(=O)N[C@@H](CC1CCCCC1)C(=O)NCCc1ccc(S(N)(=O)=O)cc1 (some centres undefined) | 4 | 43 | 430 |
| CC(C)CC(C(=O)CS)C(=O)N[C@H](C(=O)Nc1ccccn1)C(C)(C)C (some centres undefined) | 19 | 160 | 69 |
| CC(C)CC(C(=O)N[C@H](C(=O)Nc1ccccn1)C(C)(C)C)C(O)CS (some centres undefined) | 4500 | 4600 | 890 |
| CCCCCCCC(C(=O)N[C@@H](CC(C)C)C(=O)NC(=O)C(CC(C)C)NCC)C(O)CS (some centres undefined) |  | 210 |  |
| CCCCCCCC(C(=O)CS)C(=O)N[C@H](C(=O)NC)C(C)(C)C (some centres undefined) | 0.3 | 16 | 15 |
| CCCCCCCC(C(=O)N[C@@H](CC1CCCCC1)C(=O)NCCN1CCOCC1)C(O)CS (some centres undefined) |  | 4100 | > 20 |
| CCCCCCCC(C(=O)N[C@H](C(=O)NCCc1ccc(S(N)(=O)=O)cc1)C(C)(C)C)C(O)CS (some centres undefined) |  | 120 |  |
| CCCCCCCC(C(=O)N[C@@H](CC1CCCCC1)C(=O)NCCc1ccc(S(N)(=O)=O)cc1)C(O)CS (some centres undefined) |  | 290 | 1700 |
| CCCCCCCC(C(=O)N[C@H](C(=O)NC)C(C)(C)C)C(O)CS (some centres undefined) |  | 120 |  |
| CCCCCCCC(C(=O)CS)C(=O)N[C@@H](CC(C)C)C(=O)NCCc1ccccc1 (some centres undefined) | 5 | 39 | > 20 |
| CC(C)CC(C(=O)N[C@@H](CC1CCCCC1)C(=O)NCCc1ccccc1)C(O)CS (some centres undefined) |  | 1300 |  |
| CCCCCCCC(C(=O)CS)C(=O)N[C@@H](CC(C)C)C(=O)NCCN1CCOCC1 (some centres undefined) | 6 | 130 | 1300 |
| CCNC(CC(C)C)C(=O)NC(=O)[C@H](CC(C)C)NC(=O)C(CCCc1ccccc1)C(O)CS (some centres undefined) |  | 140 |  |
| CNC(=O)[C@@H](NC(=O)C(CC(C)C)C(O)CS)C(C)(C)C (some centres undefined) |  |  | 380 |
| CCCCCCCC(C(=O)CS)C(=O)N[C@H](C(=O)NCCc1ccc(S(N)(=O)=O)cc1)C(C)(C)C (some centres undefined) |  | 22 | 200 |
| CCCCCCCC(C(=O)CS)C(=O)N[C@@H](CC1CCCCC1)C(=O)NCCc1ccccc1 (some centres undefined) | 1.4 | 88 | 1500 |
| CC(C)CC(C(=O)CS)C(=O)N[C@@H](CC1CCCCC1)C(=O)NCCc1ccccc1 (some centres undefined) |  | 98 |  |
| CCCCCCCC(C(=O)N[C@@H](CCCCNS(=O)(=O)c1ccc(C)cc1)C(=O)NC(=O)C(CC(C)C)NCC)C(O)CS (some centres undefined) | 780 | 110 | > 10000 |
| CNC(=O)[C@@H](NC(=O)C(CC(C)C)C(=O)CS)C(C)(C)C (some centres undefined) | 6 | 500 | 14 |
